Data from ChEMBL document CHEMBL5303304, “EUbOPEN Chemogenomics Library - IncuCyte” (2023).

Legend:
Format in all cases: toxicity, cell-based
HEK-293T = assay: Incucyte cell viability with HEK293T; conditions: human, 10 µM, compound concentration 10 uM
Fibroblast = assay: Incucyte cell viability with human fibroblast; conditions: 10 µM, compound concentration 10 uM
U2OS = assay: Incucyte cell viability with U2OS; conditions: human, 10 µM, compound concentration 10 uM
Further: unitless GR value; below 1 slowed growth and below 0 cell loss.

| Compound | Growth Rate (HEK-293T; 0 h, replicate number 2) | Growth Rate (HEK-293T; 6 h, replicate number 1) | Growth Rate (HEK-293T; 12 h, replicate number 1) | Growth Rate (HEK-293T; 12 h, replicate number 2) | Growth Rate (HEK-293T; 18 h, replicate number 1) | Growth Rate (HEK-293T; 18 h, replicate number 2) | Growth Rate (HEK-293T; 24 h, replicate number 1) | Growth Rate (HEK-293T; 24 h, replicate number 2) | Growth Rate (Fibroblast; 6 h, replicate number 2) | Growth Rate (Fibroblast; 12 h, replicate number 2) | Growth Rate (Fibroblast; 18 h, replicate number 2) | Growth Rate (Fibroblast; 24 h, replicate number 2) | Growth Rate (U2OS; 0 h, replicate number 1) | Growth Rate (U2OS; 6 h, replicate number 1) | Growth Rate (U2OS; 12 h, replicate number 1) | Growth Rate (U2OS; 12 h, replicate number 2) | Growth Rate (U2OS; 18 h, replicate number 1) | Growth Rate (U2OS; 24 h, replicate number 2) | Growth Rate (U2OS; 6 h, replicate number 2) | Growth Rate (U2OS; 18 h, replicate number 2) | further results |
| --- | --- | --- | --- | --- | --- | --- | --- | --- | --- | --- | --- | --- | --- | --- | --- | --- | --- | --- | --- | --- | --- |
| O=C(CNC(=O)c1ccc(-c2ccccc2)cc1)NC1CCCc2ccccc21 (centres undefined) | -0.65 | 0.23 | -0.08 | 0.41 | 0.26 | 0.38 | 0.39 | 0.46 | 0.27 | 0.26 | 0.42 | 0.7 | 0.77 | 0.38 | 0.67 | 0.9 | 0.43 | 0.93 | – | – | Growth Rate (HEK-293T; 6 h, replicate number 2): 0.73; Growth Rate (U2OS; 24 h, replicate number 1): 0.55 |
| COc1ccc(N(C(=O)Nc2c(C)cccc2C)c2cc(Nc3ccc(N4CCN(C)CC4)cc3)ncn2)c(OC)c1 | 1 | – | – | – | – | – | – | – | – | – | – | – | 0.61 | 0.85 | 0.77 | 0.57 | 0.25 | -0.2 | 0.97 | 0.14 | Growth Rate (Fibroblast; 0 h, replicate number 2): -0.56; Growth Rate (U2OS; 24 h, replicate number 1): -0.25 |
| O=C(NCc1ccc(F)cc1)C1CCN(S(=O)(=O)c2cc(Cl)cc(Cl)c2)CC1 | -0.42 | 0.66 | 0.95 | – | 0.7 | – | 0.78 | – | – | 0.3 | 0.46 | 0.67 | – | 0.81 | 0.86 | 0.98 | 0.9 | 0.98 | 0.72 | 0.98 | Growth Rate (Fibroblast; 0 h, replicate number 2): 0.31; Growth Rate (Fibroblast; 6 h, replicate number 1): 0.84; Growth Rate (Fibroblast; 12 h, replicate number 1): 0.58; Growth Rate (Fibroblast; 18 h, replicate number 1): 0.84; Growth Rate (Fibroblast; 24 h, replicate number 1): 0.76; Growth Rate (U2OS; 0 h, replicate number 2): 0.76 |
| COCCCS(=O)(=O)c1cc(C)c(-c2ccc(F)c3c2CC[C@H]3Oc2ccc3c(c2)OC[C@H]3CC(=O)O)c(C)c1 | -0.02 | 0.78 | 0.83 | – | 0.82 | – | 0.81 | – | – | – | – | – | – | 0.63 | – | 0.95 | 0.79 | 0.9 | 0.65 | 0.88 | Growth Rate (Fibroblast; 0 h, replicate number 2): 0.7; Growth Rate (Fibroblast; 6 h, replicate number 1): 1; Growth Rate (U2OS; 0 h, replicate number 2): -1 |
| CCc1nc(C2CCC2)n2nc(-c3ccccc3)[nH]c(=O)c12 | -0.05 | -0.09 | 0.44 | 0.76 | 0.64 | 0.76 | 0.75 | 0.91 | -0.72 | -0.29 | 0.5 | 0.86 | 0.68 | 0.84 | – | – | – | – | – | 0.95 | – |
| COc1cccc(-c2c(C)c(Cc3c(F)cccc3C(F)(F)F)c3n(c2=O)[C@@H]([C@@H](N)c2ccccc2)CS3)c1F | -0.28 | – | – | 0.52 | 0.72 | 0.5 | 0.6 | 0.46 | -0.66 | 0.73 | – | 0.87 | 0.81 | 0.48 | 0.52 | 0.75 | 0.62 | 0.93 | 0.4 | 0.91 | Growth Rate (Fibroblast; 0 h, replicate number 1): -1; Growth Rate (Fibroblast; 6 h, replicate number 1): 0.51; Growth Rate (Fibroblast; 18 h, replicate number 1): 0.92; Growth Rate (Fibroblast; 24 h, replicate number 1): 0.83; Growth Rate (U2OS; 0 h, replicate number 2): -0.8; Growth Rate (U2OS; 24 h, replicate number 1): 0.37 |
